Results from patent US10065954B2, “Substituted imidazo[4,5-c]pyridines as SSAO inhibitors” (Proximagen Limited, priority 2014, dated 2018).

Target: T1, purified recombinantly expressed human SSAO (Homo sapiens, UniProt Q16853)
T1 construct: made in house
T1 sequence (Q16853 1-763): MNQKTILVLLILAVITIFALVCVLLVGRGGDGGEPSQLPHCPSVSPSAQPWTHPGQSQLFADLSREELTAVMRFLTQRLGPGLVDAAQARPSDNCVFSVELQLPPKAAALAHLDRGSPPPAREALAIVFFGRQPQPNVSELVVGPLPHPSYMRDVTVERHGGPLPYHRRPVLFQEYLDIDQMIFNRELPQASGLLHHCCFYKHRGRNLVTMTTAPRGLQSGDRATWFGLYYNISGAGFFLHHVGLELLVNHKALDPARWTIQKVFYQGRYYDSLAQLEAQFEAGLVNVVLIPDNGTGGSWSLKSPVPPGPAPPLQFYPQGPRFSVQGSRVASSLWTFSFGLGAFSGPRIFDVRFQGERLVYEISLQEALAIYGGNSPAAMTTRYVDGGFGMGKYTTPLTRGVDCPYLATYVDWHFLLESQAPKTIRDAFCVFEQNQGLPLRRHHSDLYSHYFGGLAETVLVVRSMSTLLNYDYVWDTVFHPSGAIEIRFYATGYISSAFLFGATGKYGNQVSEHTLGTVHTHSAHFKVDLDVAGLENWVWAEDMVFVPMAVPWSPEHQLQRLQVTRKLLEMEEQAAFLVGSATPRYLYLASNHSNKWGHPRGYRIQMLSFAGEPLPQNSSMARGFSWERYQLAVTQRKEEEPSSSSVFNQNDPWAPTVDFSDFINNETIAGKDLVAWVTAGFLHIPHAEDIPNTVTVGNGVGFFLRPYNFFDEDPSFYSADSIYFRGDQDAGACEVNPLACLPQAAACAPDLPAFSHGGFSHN
Assay: SSAO enzyme inhibition assay (benzylamine substrate; hydrogen peroxide/HRP-coupled or 14C-aldehyde detection)
Format: biochemical
Settings: SSAO inhibitory activity; recombinant human SSAO, RT
Procedure: All primary assays were performed at RT. with purified recombinantly expressed human SSAO. Enzyme was prepared essentially as described in Öhman et al. (Protein Expression and Purification 46 (2006) 321-331). In addition, secondary- and selectivity assays were performed using SSAO prepared from various tissues or purified rat recombinant SSAO. The enzyme activity was assayed with benzylamine as substrate by measuring either benzaldehyde production, using ^14C-labeled substrate, or by utilizing the production of hydrogen peroxide in a horseradish peroxidase (HRP) coupled reaction. Briefly, test compounds were dissolved in dimethyl sulfoxide (DMSO) to a concentration of 10 mM. Dose-response measurements were assayed by either creating 1:10 serial dilutions in DMSO to produce a 7 point curve or by making 1:3 serial dilutions in DMSO to produce 11 point curves. The top concentrations were adjusted depending on the potency of the compounds and subsequent dilution in reaction buffer yielded a final DMSO concentration ≤2%.
In a horseradish peroxidase (HRP) coupled reaction, hydrogen peroxide oxidation of 10-acetyl-3,7-dihydroxyphenoxazine produced resorufin, which is a highly fluorescent compound (Zhout and Panchuk-Voloshina. Analytical Biochemistry 253 (1997) 169-174; Amplex® Red Hydrogen Peroxide/peroxidase Assay kit, Invitrogen A22188). Enzyme and compounds in 50 mM sodium phosphate, pH 7.4 were set to pre-incubate in flat-bottomed microtiter plates for approximately 15 min before initiating the reaction by addition of a mixture of HRP, benzylamine and Amplex reagent. Benzylamine concentration was fixed at a concentration corresponding to the Michaelis constant, determined using standard procedures. Fluorescence intensity was then measured at several time points during 1-2 h, exciting at 544 nm and reading the emission at 590 nm. For the human SSAO assay final concentrations of the reagents in the assay wells were: SSAO enzyme 1 ug/mL, benzylamine 100 uM, Amplex reagent 20 uM, HRP 0.1 U/mL and varying concentrations of test compound. The inhibition was measured as % decrease of the signal compared to a control without inhibitor (only diluted DMSO). The background signal from a sample containing no SSAO enzyme was subtracted from all data points. Data was fitted to a four parameter logistic model and IC50 values were calculated using the GraphPad Prism 4 or XLfit 4 programs.
SSAO activity was assayed using […] benzylamine and analysed by measuring radioactive benzaldehyde. In a white 96-well optiplate (Packard), 20 uL of diluted test compound was pre-incubated at RT with 20 uL SSAO enzyme for approximately 15 min with continuous agitation. All dilutions were made with PBS. The reaction was initiated by adding 20 uL of the benzylamine substrate solution containing Benzylamine hydrochloride (CFA589, GE Healthcare). The plate was incubated for 1 h as above after which the reaction was stopped by acidification (10 uL 1M aq HCl). Then 90 uL Micro Scint-E solution (Perkin-Elmer) was added to each well and the plate was continuously mixed for 15 min. Phase separation occurred instantly and activity was read in a Topcount scintillation counter (Perkin-Elmer). In the final reaction well, the human recombinant SSAO concentration was 10 ug/mL. In order to optimize sensitivity, the substrate concentration was decreased as compared to the HRP coupled assay in order to get a higher fraction of radioactive product. In the human SSAO assay, benzylamine concentration was 40 uM (0.2uCi/mL). Data was analysed as above.

First: Fc1ccc(-n2c(-c3ccc(N4CCOCC4)nc3)nc3ccncc32)nc1 [Compound 1, 4-{5-[3-(5-Fluoropyridin-2-yl)-3H-imidazo[4,5-c]pyridin-2-yl]pyridin-2-yl}morpholine]
Second: Cc1cc(N2CCOCC2)ncc1-c1nc2ccncc2n1-c1ccc(F)cn1 [Compound 14, 4-{5-[3-(5-Fluoropyridin-2-yl)-3H-imidazo[4,5-c]pyridin-2-yl]-4-methylpyridin-2-yl}morpholine; tris(trifluoroacetic acid)]
The IC50 of the first is lower: 50 to 200 nM for the first, 200 to 1200 nM for the second. The first is the more potent here.

`Cc1cc(N2CCOCC2)ncc1-c1nc2ccncc2n1-c1ccc(F)cc1F` [Compound 2, 4-{5-[3-(2,4-Difluorophenyl)-3H-imidazo[4,5-c]pyridin-2-yl]-4-methylpyridin-2-yl}morpholine] and `Cc1ccc(-n2c(-c3cnc(N4CCOCC4)cc3C)nc3ccncc32)c(F)c1` [Compound 8, 4-{5-[3-(2-Fluoro-4-methylphenyl)-3H-imidazo[4,5-c]pyridin-2-yl]-4-methylpyridin-2-yl}morpholine] cannot be ordered by IC50: under 50 nM for the first, under 50 nM for the second.

First: Fc1ccc(-n2c(-c3cnc(NC4CCOCC4)nc3)nc3ccncc32)c(F)c1 [Compound 3, 5-[3-(2,4-Difluorophenyl)-3H-imidazo[4,5-c]pyridin-2-yl]-N-(oxan-4-yl)pyrimidin-2-amine]
Second: Fc1ccc(-n2c(-c3ccc(NC4CC4)nc3)nc3ccncc32)cc1 [Compound 22, N-Cyclopropyl-5-[3-(4-fluorophenyl)-3H-imidazo[4,5-c]pyridin-2-yl]pyridin-2-amine]
The IC50 of the first is higher: 50 to 200 nM for the first, under 50 nM for the second. The second is the more potent here.

First: CCN(CC)c1ncc(-c2nc3ccncc3n2-c2ccc(C)nc2)cn1 [Compound 4, N,N-Diethyl-5-[3-(6-methylpyridin-3-yl)-3H-imidazo[4,5-c]pyridin-2-yl]pyrimidin-2-amine]
Second: CCN(CC)c1ncc(-c2nc3ccncc3n2-c2ccc(C)cc2)cn1 [Compound 6, N,N-Diethyl-5-[3-(4-methylphenyl)-3H-imidazo[4,5-c]pyridin-2-yl]pyrimidin-2-amine]
The IC50 of the first is higher: 50 to 200 nM for the first, under 50 nM for the second. The second is the more potent here.

Compared with `CCN(CC)c1ncc(-c2nc3ccncc3n2-c2ccc(F)cc2)cn1` [Compound 5, N,N-Diethyl-5-[3-(4-fluorophenyl)-3H-imidazo[4,5-c]pyridin-2-yl]pyrimidin-2-amine], `CCN(CC)c1ncc(-c2nc3ccncc3n2-c2ccc(C)cn2)cn1` [Compound 7, N,N-Diethyl-5-[3-(5-methylpyridin-2-yl)-3H-imidazo[4,5-c]pyridin-2-yl]pyrimidin-2-amine] is higher in IC50: under 50 nM for the first, 50 to 200 nM for the second.

First: Cc1cc(N2CCOCC2)ncc1-c1nc2ccncc2n1-c1ccc(Cl)cc1 [Compound 9, 4-{5-[3-(4-Chlorophenyl)-3H-imidazo[4,5-c]pyridin-2-yl]-4-methylpyridin-2-yl}morpholine]
Second: Cc1ccc(-n2c(-c3cnc(N4CCOCC4)cc3C)nc3ccncc32)nc1 [Compound 13, 4-{4-Methyl-5-[3-(5-methylpyridin-2-yl)-3H-imidazo[4,5-c]pyridin-2-yl]pyridin-2-yl}morpholine]
The IC50 of the first is lower: under 50 nM for the first, 50 to 200 nM for the second.

`Cc1ccc(-n2c(-c3ccc(N4CCC(F)(F)CC4)nc3)nc3ccncc32)cc1` [Compound 11, 2-(4,4-Difluoropiperidin-1-yl)-5-[3-(4-methylphenyl)-3H-imidazo[4,5-c]pyridin-2-yl]pyridine] and `Fc1ccc(-n2c(-c3ccc(N4CCSCC4)nc3)nc3ccncc32)cc1` [Compound 16, 4-{5-[3-(4-Fluorophenyl)-3H-imidazo[4,5-c]pyridin-2-yl]pyridin-2-yl}thiomorpholine] cannot be ordered by IC50: under 50 nM for the first, under 50 nM for the second.

First: Fc1ccc(-n2c(-c3ccc(NCCN4CCOCC4)nc3)nc3ccncc32)cc1 [Compound 20, 5-[3-(4-Fluorophenyl)-3H-imidazo[4,5-c]pyridin-2-yl]-N-[2-(morpholin-4-yl)ethyl]pyridin-2-amine]
Second: Cc1ccc(-n2c(-c3ccc(N4CCOCC4)cc3)nc3ccncc32)cn1 [Compound 28, 4-{4-[3-(6-Methylpyridin-3-yl)-3H-imidazo[4,5-c]pyridin-2-yl]phenyl}morpholine]
The IC50 of the first is lower: under 50 nM for the first, 50 to 200 nM for the second.

Compared with `Cc1ccc(-n2c(-c3ccc(NC4CC4)nc3)nc3ccncc32)cn1` [Compound 23, N-Cyclopropyl-5-[3-(6-methylpyridin-3-yl)-3H-imidazo[4,5-c]pyridin-2-yl]pyridin-2-amine], `Cc1ccc(-n2c(-c3cnc(N4CCCC4)nc3)nc3ccncc32)cn1` [Compound 25, 5-[3-(6-Methylpyridin-3-yl)-3H-imidazo[4,5-c]pyridin-2-yl]-2-(pyrrolidin-1-yl)pyrimidine] is lower in IC50: 200 to 1200 nM for the first, 50 to 200 nM for the second.

`Cc1ccc(-n2c(-c3ccc(NC(C)C)nc3)nc3ccncc32)cc1` [Compound 24, 5-[3-(4-Methylphenyl)-3H-imidazo[4,5-c]pyridin-2-yl]-N-(propan-2-yl)pyridin-2-amine] and `Cc1ccc(-n2c(-c3cnc(N4CCCC4)nc3)nc3ccncc32)cc1` [Compound 29, 5-[3-(4-Methylphenyl)-3H-imidazo[4,5-c]pyridin-2-yl]-2-(pyrrolidin-1-yl)pyrimidine] cannot be ordered by IC50: under 50 nM for the first, under 50 nM for the second.

`Cc1ccc(-n2c(-c3cnc(N4CCCC4)nc3)nc3ccncc32)nc1` [Compound 26, 5-[3-(5-Methylpyridin-2-yl)-3H-imidazo[4,5-c]pyridin-2-yl]-2-(pyrrolidin-1-yl)pyrimidine] and `Fc1ccc(-n2c(-c3cnc(N4CCCC4)nc3)nc3ccncc32)nc1` [Compound 27, 5-[3-(5-Fluoropyridin-2-yl)-3H-imidazo[4,5-c]pyridin-2-yl]-2-(pyrrolidin-1-yl)pyrimidine] fall in the same range of IC50: 50 to 200 nM for the first, 50 to 200 nM for the second.

First: Cc1ccc(-n2c(-c3ccc(N4CCOCC4)cc3)nc3ccncc32)nc1 [Compound 30, 4-{4-[3-(5-Methylpyridin-2-yl)-3H-imidazo[4,5-c]pyridin-2-yl]phenyl}morpholine]
Second: Cc1ccc(-n2c(-c3ccc(N4CCCC4)cc3)nc3ccncc32)cn1 [Compound 31, 2-Methyl-5-{2-[4-(pyrrolidin-1-yl)phenyl]-3H-imidazo[4,5-c]pyridin-3-yl}pyridine]
The IC50 of the first is higher: 200 to 1200 nM for the first, under 50 nM for the second.

First: Cc1ccc(-n2c(-c3ccc(N4CCCC4)cc3F)nc3ccncc32)cn1 [Compound 32, 5-{2-[2-Fluoro-4-(pyrrolidin-1-yl)phenyl]-3H-imidazo[4,5-c]pyridin-3-yl}-2-methylpyridine]
Second: Cc1ccc(-n2c(-c3ccc(N4CCOCC4)cc3F)nc3ccncc32)cn1 [Compound 33, 4-{3-Fluoro-4-[3-(6-methylpyridin-3-yl)-3H-imidazo[4,5-c]pyridin-2-yl]phenyl}morpholine]
The IC50 of the first is lower: under 50 nM for the first, 50 to 200 nM for the second. The first is the more potent here.

Compound `Cc1ccc(-n2c(-c3ccc(N4CCCC4)c(F)c3)nc3ccncc32)cn1` [Compound 34, 5-{2-[3-Fluoro-4-(pyrrolidin-1-yl)phenyl]-3H-imidazo[4,5-c]pyridin-3-yl}-2-methylpyridine] has an IC50 of 50 to 200 nM.
